Key:
breast cancer cells = assay: Summary statements on growth of breast cancer cells / antiproliferative activity; assay type: cell-based; details: for antiproliferative activity: cells not given; for modulate the growth of breast cancer cells and/or compete for binding to the G-rich oligonucleotide binding protein (EMSA): and/or statement, FIGS. 6 and 7
Excerpt: (§1) By G-rich oligonucleotide (GRO) it is meant that the oligonucleotides consist of 4-100 nucleotides (preferably 10-30 nucleotides) with DNA, RNA, 2′-O-methyl, phosphorothioate or other chemically similar backbones. Their sequences contain one or more GGT motifs. The oligonucleotides have antiproliferative activity against cells and bind to GRO binding protein and/or nucleolin.

[1] = target: T1, G-rich oligonucleotide binding protein / nucleolin (Homo sapiens, UniProt P19338); assay: Protein binding, summary statements (EMSA); details: summary statement
T1 construct: endogenous in cells; MDA-MB-231)
Excerpt: as §1
Additionally, the present invention provides a method for selecting oligonucleotides that bind to nucleolin. The method utilizes an electrophoretic mobility shift assay (EMSA), as described below, to screen for oligonucleotides that bind strongly to nucleolin and which, therefore, would be expected, according to the present invention, to have anti-proliferative activity. Oligonucleotides to be screened as potential antiproliferative agents are labeled and then incubated with nuclear extracts in the absence or presence of unlabeled competitor oligonucleotide and are allowed to react. The reaction mixtures are then electrophoresed and mobility shifts and/or bond intensity can be used to identify those oligonucleotides which have bound to the specific protein.
Alternatively, unlabeled compounds to be screened are incubated with nuclear extracts in the presence of labeled oligonucleotide (for example 5′-TTAGGGTTAGGGTTAGGG TTAGGG) (SEQ ID NO: 20) and binding is assessed by a decrease in the intensity of the shifted band, as in FIG. 6B.

[2] = test system: MDA-MB-231 breast cancer cells; assay: MTT cell growth assay, MDA-MB-231 cells; assay type: cell-based, human; details: for antiproliferative activity, MDA-MB-231: single 10 uM dose, FIG. 7A
Method: Cells were plated at low density ([…] cells per well, depending on cell line) in the appropriate serum-supplemented medium in 96-well plates (one plate per MTT assay time point) and grown under standard conditions of cell culture. The following day (day 1) oligonucleotide, or water as control, was added to the culture medium to give a final concentration of 15 uM. Further oligonucleotide, equivalent to half the initial dose, was added to the culture medium on days two, three and four. Cells were assayed using the MTT assay (Morgan (1998) Methods. Mol. Biol. 79, 179-183) on days one, three, five, seven and nine after plating. The culture medium was not changed throughout the duration of the experiment (which was the time required for untreated cells to grow to confluence). Experiments were performed in triplicate and bars represent the standard error of the data. For the experiment shown in FIG. 7A, MDA-MB-231 breast cancer cells (5×10^2 cells per well) were plated in a 96-well plate. After twenty-four hours, a single dose of oligonucleotide, or equal volume of PBS as a control, was added to the culture medium to a final concentration of 10 uM. Viable cells were assessed seven days after plating using the MTT assay. For the experiment using 3′-unmodified oligonucleotides (FIG. 7D), serum-supplemented medium was replaced by serum-free medium containing oligonucleotide (or serum-free medium alone in control wells). After incubation at 37° C. for four hours, fetal calf serum (Life Technologies, Inc.) was added to the medium to give 10% v/v.

[3] = target: T2, TEL-binding protein (GRO-binding protein/nucleolin, MDA-MB-231 nuclear extracts) (Homo sapiens, UniProt P19338); assay: Competitive EMSA, labeled TEL and MDA-MB-231 nuclear extracts; details: for competition with TEL for binding to the nuclear protein: unlabeled competitor, 10-fold molar excess, FIG. 7B
T2 construct: Nuclear and cytoplasmic extracts from MDA-MB-231 cells were prepared using the protocol described in F. M. Ausubel et al; endogenous in cells; host or cells: MDA-MB-231 nuclear extract, prepared in house
T2 sequence (P19338 whole entry): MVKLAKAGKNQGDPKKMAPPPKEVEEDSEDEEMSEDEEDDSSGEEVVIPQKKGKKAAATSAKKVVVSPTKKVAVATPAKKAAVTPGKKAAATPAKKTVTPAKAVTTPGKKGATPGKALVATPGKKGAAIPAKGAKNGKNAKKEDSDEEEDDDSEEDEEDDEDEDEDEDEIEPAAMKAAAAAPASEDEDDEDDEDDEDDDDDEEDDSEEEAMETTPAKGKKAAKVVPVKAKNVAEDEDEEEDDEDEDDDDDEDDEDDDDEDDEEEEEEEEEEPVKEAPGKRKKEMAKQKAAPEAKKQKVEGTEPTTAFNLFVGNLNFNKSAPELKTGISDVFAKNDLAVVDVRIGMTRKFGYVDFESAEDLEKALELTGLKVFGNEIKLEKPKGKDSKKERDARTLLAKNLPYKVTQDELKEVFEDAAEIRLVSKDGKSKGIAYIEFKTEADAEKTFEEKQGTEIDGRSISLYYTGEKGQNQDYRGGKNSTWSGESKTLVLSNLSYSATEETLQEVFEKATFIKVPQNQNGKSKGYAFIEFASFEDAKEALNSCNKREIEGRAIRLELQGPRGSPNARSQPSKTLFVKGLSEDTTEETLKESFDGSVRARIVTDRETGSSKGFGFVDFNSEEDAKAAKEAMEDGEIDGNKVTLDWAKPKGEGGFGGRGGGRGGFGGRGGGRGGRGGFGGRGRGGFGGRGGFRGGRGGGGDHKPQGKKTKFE

T1 sequence (P19338 whole entry): as above

Substance	antiproliferative activity (breast cancer cells)	protein binding [1]	antiproliferative activity, MDA-MB-231 [2]	competition with TEL for binding to the nuclear protein [3]	modulate the growth of breast cancer cells and/or compete for binding to the G-rich oligonucleotide binding protein (EMSA) (breast cancer cells)	other results
5′-GGTGGTGGTGGTTGT GGTGGTGGTGGTTT-3′ (GGTGGTGGTGGTTGTGGTGGTGGTGGTTT; DNA, backbone not given here; further chemistry not fully specified) [GR029-6]	demonstrated antiproliferative activity	protein binding				
5′-GGTTGGGGTGGGTGGGGTG GGTGGG-3′ (GGTTGGGGTGGGTGGGGTGGGTGGG; DNA, backbone not given here; further chemistry not fully specified) [GR025A]			moderate antiproliferative activity	able to compete		
5′-GTTGTTTGGGGTGG-3′ (DNA, backbone not given here; further chemistry not fully specified) [GRO14A]			moderate antiproliferative activity	able to compete		
5′-TGGTGGTGGTGGT-3′ (DNA, backbone not given here; further chemistry not fully specified) [GR029-13]					have been shown to modulate the growth of breast cancer cells and/or to compete for binding	
5′-TTTGGTGG TGGTGGTTTTGGTGGTGGTGG-3′ (TTTGGTGGTGGTGGTTTTGGTGGTGGTGG; aptamer; DNA, backbone not given here; further chemistry not fully specified) [GR029-2]	demonstrated antiproliferative activity	protein binding			have been shown to modulate the growth of breast cancer cells and/or to compete for binding	
5′-TTTGGTGGTGGT GGTGTGGTGGTGGTGG-3′ (TTTGGTGGTGGTGGTGTGGTGGTGGTGG; DNA, backbone not given here; further chemistry not fully specified) [GR028B]	demonstrated antiproliferative activity	protein binding				
5′-TTTGGTGGTGGTGGTGGTGGTGGTGGTGG-3′ (aptamer; DNA, backbone not given here; further chemistry not fully specified) [GR029-3]	demonstrated antiproliferative activity	protein binding			have been shown to modulate the growth of breast cancer cells and/or to compete for binding	
5′-TTTGGTGGTGGTGGTTGTGG TGGTGGTG-3′ (TTTGGTGGTGGTGGTTGTGGTGGTGGTG; DNA, backbone not given here; further chemistry not fully specified) [GR028A]			moderate antiproliferative activity	able to compete		
5′-TTTGGTGGTGGTGGTTTGGGTGGTGG TGG-3′ (TTTGGTGGTGGTGGTTTGGGTGGTGGTGG; aptamer; DNA, backbone not given here; further chemistry not fully specified) [GR029-5]	demonstrated antiproliferative activity	protein binding			have been shown to modulate the growth of breast cancer cells and/or to compete for binding	
heparin [reference compound]						growth of MDA-MB-231 cells, heparin ([2]; 20 units/ml (approximately 0.12 mg/ml), FIG. 7C): no effect on cell growth; competition for protein binding in competitive EMSA, heparin ([3]; 0.02 units/ml (approximately 0.12 ug/ml)): No competition

— patent US8114850B2, “Antiproliferative activity of G-rich oligonucleotides and method of using same to bind to nucleolin” (Advanced Cancer Therapeutics, LLC, priority 1999, dated 2012)
